Laboratory results published in paper PMC3540847 (Journal of Lipid Research, 2012).
Counter-ions that a name gives are not always drawn.

Experiments:
skAsbt = biological target: T1, skAsbt (Leucoraja erinaceus, UniProt I4CJQ7); experiment: competition of 3H-TCA uptake, transfected COS-7 cells; type: cell-based; conditions: 10 μM 3H-TCA, Na+ medium, 10 min
T1 sequence (I4CJQ7 1-393): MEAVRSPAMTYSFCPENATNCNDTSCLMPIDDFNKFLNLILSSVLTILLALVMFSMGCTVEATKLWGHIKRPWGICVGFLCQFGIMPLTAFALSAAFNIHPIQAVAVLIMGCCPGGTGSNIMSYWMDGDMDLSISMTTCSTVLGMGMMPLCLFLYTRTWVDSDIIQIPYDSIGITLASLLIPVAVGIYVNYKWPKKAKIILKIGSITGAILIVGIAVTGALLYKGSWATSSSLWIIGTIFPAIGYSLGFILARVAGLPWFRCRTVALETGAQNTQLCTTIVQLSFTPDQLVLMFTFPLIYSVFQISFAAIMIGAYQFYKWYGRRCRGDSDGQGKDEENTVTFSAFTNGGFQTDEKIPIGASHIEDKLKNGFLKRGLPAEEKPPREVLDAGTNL

hASBT = biological target: T2, hASBT (Homo sapiens, UniProt Q12908); experiment: as above; type: cell-based; conditions: 10 μM 3H-TCA, Na+ medium, 10 min
T2 sequence (Q12908 1-348): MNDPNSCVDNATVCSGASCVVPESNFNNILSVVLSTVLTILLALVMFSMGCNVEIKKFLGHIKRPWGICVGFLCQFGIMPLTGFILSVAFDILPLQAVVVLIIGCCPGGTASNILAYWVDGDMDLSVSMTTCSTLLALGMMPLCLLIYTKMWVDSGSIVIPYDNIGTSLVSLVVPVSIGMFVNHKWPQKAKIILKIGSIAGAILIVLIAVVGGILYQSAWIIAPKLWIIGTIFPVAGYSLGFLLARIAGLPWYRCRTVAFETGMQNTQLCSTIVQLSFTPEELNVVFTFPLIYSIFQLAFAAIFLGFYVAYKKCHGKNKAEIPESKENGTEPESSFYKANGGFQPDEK

SMILES	inhibition of uptake at 100 μM (skAsbt)	inhibition of uptake at 100 μM (hASBT)
C[C@H](CCCOS(=O)(=O)O)[C@H]1CC[C@H]2[C@@H]3[C@H](O)C[C@H]4C[C@H](O)CC[C@]4(C)[C@H]3C[C@H](O)[C@]12C [5α-PZS]	significantly reduced ^3H-TCA transport activity in both skAsbt and hASBT	significantly reduced ^3H-TCA transport activity in both skAsbt and hASBT
C[C@H](CCCC(CO)COS(=O)(=O)O)[C@H]1CC[C@H]2[C@@H]3[C@H](O)C[C@H]4C[C@H](O)CC[C@]4(C)[C@H]3C[C@H](O)[C@]12C (stereo partly drawn) [5α-cyprinol sulfate]	significantly reduced ^3H-TCA transport activity in both skAsbt and hASBT	significantly reduced ^3H-TCA transport activity in both skAsbt and hASBT
C[C@H](CCC(=O)NCC(=O)O)[C@H]1CC[C@H]2[C@@H]3[C@H](O)C[C@@H]4C[C@H](O)CC[C@]4(C)[C@H]3CC[C@]12C [GCDCA]	significantly reduced ^3H-TCA transport activity in both skAsbt and hASBT	significantly reduced ^3H-TCA transport activity in both skAsbt and hASBT
C[C@H](CCC(=O)NCCS(=O)(=O)O)[C@H]1CC[C@H]2[C@@H]3[C@H](O)C[C@@H]4C[C@H](O)CC[C@]4(C)[C@H]3CC[C@]12C [TCDCA]	significantly reduced ^3H-TCA transport activity in both skAsbt and hASBT	significantly reduced ^3H-TCA transport activity in both skAsbt and hASBT
C[C@H](CCC(=O)NCCS(=O)(=O)O)[C@H]1CC[C@H]2[C@@H]3[C@@H](O)C[C@@H]4C[C@H](O)CC[C@]4(C)[C@H]3CC[C@]12C [TUDCA]	–	TUDCA effectively reduced ^3H-TCA transport activity in hASBT but not in skAsbt
O=C1OC(c2ccc(O)c(S(=O)(=O)O)c2)(c2ccc(O)c(S(=O)(=O)O)c2)c2c(Br)c(Br)c(Br)c(Br)c21 [bromosulfophtalein]	bromosulfophtalein significantly inhibited both transporters	bromosulfophtalein significantly inhibited both transporters
C[C@H](CCC(=O)NCCS(=O)(=O)O)[C@H]1CC[C@H]2[C@@H]3CC[C@@H]4C[C@H](OS(=O)(=O)O)CC[C@]4(C)[C@H]3CC[C@]12C [taurolithocholic acid-3-sulfate]	significantly reduced ^3H-TCA transport activity in both skAsbt and hASBT	–
C[C@H](CCC(=O)NCCS(=O)(=O)O)[C@H]1CC[C@H]2[C@@H]3CC[C@@H]4C[C@H](O)CC[C@]4(C)[C@H]3CC[C@]12C [taurolithocholic acid]	significantly reduced ^3H-TCA transport activity in both skAsbt and hASBT	significantly reduced ^3H-TCA transport activity in both skAsbt and hASBT
